Some results are limits rather than exact numbers.

The target of test [1] is T1, ΔF508 CFTR (Homo sapiens, UniProt P13569, DEL508-508). Kind of test: Potentiator activity, YFP halide (iodide) quenching assay in FRT cells expressing ΔF508 CFTR, 27° C. pre-incubation. The test is classed as cell-based. Details: expressed in transfected cells; host or cells: Fischer rat thyroid (FRT) cells. The conditions noted are these: FRT cells ΔF508 CFTR/YFP, 24 hours at 27° C., compound with forskolin 30 min. In outline: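 FRT cells stably co-expressing ΔF508 CFTR and halide-sensitive YFP, grown 24 h at 37° C. then 24 h at 27° C. to raise surface CFTR. Compounds in PBS with forskolin, 30 min at 37° C.; iodide injected and YFP quenching (ex 485/em 530 nm) followed. EC50 from normalized endpoint fluorescence.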
T1 sequence (P13569 with tags, fused parts or gaps DEL508-508): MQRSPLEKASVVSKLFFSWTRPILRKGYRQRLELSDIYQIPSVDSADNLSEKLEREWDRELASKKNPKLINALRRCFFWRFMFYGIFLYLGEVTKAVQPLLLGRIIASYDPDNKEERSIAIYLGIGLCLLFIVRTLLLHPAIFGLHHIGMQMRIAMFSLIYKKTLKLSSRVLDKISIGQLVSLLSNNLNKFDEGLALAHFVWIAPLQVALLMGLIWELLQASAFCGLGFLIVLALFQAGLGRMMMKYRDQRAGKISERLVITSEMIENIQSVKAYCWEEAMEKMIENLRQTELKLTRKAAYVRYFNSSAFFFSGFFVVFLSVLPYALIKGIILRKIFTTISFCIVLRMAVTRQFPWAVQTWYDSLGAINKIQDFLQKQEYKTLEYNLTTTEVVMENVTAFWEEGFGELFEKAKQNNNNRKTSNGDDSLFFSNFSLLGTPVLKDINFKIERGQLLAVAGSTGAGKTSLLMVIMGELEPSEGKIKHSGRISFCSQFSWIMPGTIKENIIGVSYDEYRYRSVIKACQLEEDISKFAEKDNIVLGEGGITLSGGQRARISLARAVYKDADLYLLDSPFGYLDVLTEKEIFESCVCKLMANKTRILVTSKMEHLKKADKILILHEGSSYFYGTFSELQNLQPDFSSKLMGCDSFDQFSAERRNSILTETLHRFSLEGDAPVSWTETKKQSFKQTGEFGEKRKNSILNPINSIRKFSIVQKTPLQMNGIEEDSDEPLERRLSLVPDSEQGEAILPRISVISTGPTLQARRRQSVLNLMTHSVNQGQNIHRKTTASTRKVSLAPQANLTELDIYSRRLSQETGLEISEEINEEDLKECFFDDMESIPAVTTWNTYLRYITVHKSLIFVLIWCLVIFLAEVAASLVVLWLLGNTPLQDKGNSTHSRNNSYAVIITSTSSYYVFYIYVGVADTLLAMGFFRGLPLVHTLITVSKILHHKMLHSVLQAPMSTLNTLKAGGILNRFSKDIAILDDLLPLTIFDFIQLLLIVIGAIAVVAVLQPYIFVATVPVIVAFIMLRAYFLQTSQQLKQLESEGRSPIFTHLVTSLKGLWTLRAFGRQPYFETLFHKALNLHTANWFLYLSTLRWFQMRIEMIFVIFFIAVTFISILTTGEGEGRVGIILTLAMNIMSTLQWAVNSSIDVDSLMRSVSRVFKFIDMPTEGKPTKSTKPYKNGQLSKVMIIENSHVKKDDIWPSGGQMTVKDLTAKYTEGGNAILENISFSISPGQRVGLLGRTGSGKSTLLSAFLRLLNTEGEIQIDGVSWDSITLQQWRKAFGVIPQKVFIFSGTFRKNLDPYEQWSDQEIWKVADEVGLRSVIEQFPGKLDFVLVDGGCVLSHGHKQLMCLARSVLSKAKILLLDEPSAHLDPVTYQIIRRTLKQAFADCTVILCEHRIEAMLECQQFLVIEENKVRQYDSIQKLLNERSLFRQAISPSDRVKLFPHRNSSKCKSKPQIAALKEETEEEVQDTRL

Test [2] deals with T1, ΔF508 CFTR. Put plainly: Corrector activity, YFP halide (iodide) quenching assay in FRT cells expressing ΔF508 CFTR. It counts as cell-based. Details: expressed in transfected cells; host or cells: Fischer rat thyroid (FRT) cells. To be noted: FRT cells ΔF508 CFTR/YFP, 24 hours with compound at 37° C., forskolin and genistein; read-out: Corrector EC50. The procedure, abridged: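 FRT cells co-expressing ΔF508 CFTR and halide-sensitive YFP were incubated 24 h at 37° C with compounds, then stimulated 30 min at 37° C in PBS with forskolin and genistein. Endpoint fluorescence after iodide injection was normalized to initial reading; EC50 from 4-parameter fit with bottom constrained to DMSO control.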

In general, EC50 refers to the concentration needed to bring the measured effect to its halfway point. Regarding `Nc1ncnc2c1c(-c1ccc(Cl)cc1)nn2-c1nc2ccccc2o1` [compound 277], the EC50 at ΔF508 CFTR [1] and at ΔF508 CFTR [2] was over 15 µM each time.
Regarding `Nc1ncnc2c1c(Oc1cccc(Cl)c1)nn2CC1CC1` [compound 278], the EC50 was under 2 µM at ΔF508 CFTR [1] and over 15 µM on ΔF508 CFTR [2].
Consider `CCn1nc([S+]([O-])c2cccc(Cl)c2)c2c(N)ncnc21` (stereo not shown) [compound 279], for which the half-maximal effective concentration (EC50) on ΔF508 CFTR [1] and on ΔF508 CFTR [2] was over 15 µM throughout.
Regarding `CCn1nc(Sc2cccc(OC)c2)c2c(N)ncnc21` [compound 280], the EC50 on ΔF508 CFTR [1] and at ΔF508 CFTR [2] was over 15 µM in each case.
For `CCn1nc(Sc2cccc(OC(F)(F)F)c2)c2c(N)ncnc21` [compound 281], the EC50 at ΔF508 CFTR [1] and at ΔF508 CFTR [2] was over 15 µM each time.
As for `CCn1cc(-c2ccc(Cl)cc2)c2c(N(C)C(C)=O)ncnc21` [compound 282], the EC50 at ΔF508 CFTR [1] and at ΔF508 CFTR [2] was over 15 µM throughout.
Consider `CCn1nc([S+]([O-])c2cc(F)cc(F)c2)c2c(N)ncnc21` (stereo not shown) [compound 283], for which the EC50 on ΔF508 CFTR [1] and at ΔF508 CFTR [2] was over 15 µM in each case.
As for `CCn1nc([S+]([O-])c2cccc(C(F)(F)F)c2)c2c(N)ncnc21` (stereo not shown) [compound 284], the EC50 on ΔF508 CFTR [1] and on ΔF508 CFTR [2] was over 15 µM each time.
Consider `CCn1nc([S+]([O-])c2cccc(O)c2)c2c(N)ncnc21` (stereo not shown) [compound 285], for which the half-maximal effective concentration (EC50) at ΔF508 CFTR [1] and on ΔF508 CFTR [2] was over 15 µM throughout.
Take `CCn1nc(Nc2cccc(Cl)c2)c2c(N)ncnc21` [compound 286]: the half-maximal effective concentration (EC50) at ΔF508 CFTR [1] and on ΔF508 CFTR [2] was over 15 µM throughout.
As to `Nc1ncnc2c1c(Oc1cccc(Cl)c1)nn2-c1ncccn1` [compound 287], the EC50 on ΔF508 CFTR [1] and on ΔF508 CFTR [2] was over 15 µM in each case.
Consider `Nc1ncnc2c1c(-c1ccc(Cl)cc1)nn2-c1ccc([N+](=O)[O-])cn1` [compound 288], for which the EC50 at ΔF508 CFTR [1] and at ΔF508 CFTR [2] was over 15 µM in each case.
For `CCC(C)Cn1cc(-c2ccc(Cl)cc2)c2c(N)ncnc21` (stereo not shown) [compound 289], the EC50 on ΔF508 CFTR [1] lay in the range of 2 to 5 µM; at ΔF508 CFTR [2] it was 5 to 10 µM.
Taken in the same sequence, the figures for `Nc1ncnc2c1c(-c1ccc(Cl)cc1)cn2CC(F)F` [compound 290] were 2 to 5 µM and under 2 µM.
For `CCn1nc([S+]([O-])c2ccc(C)cc2)c2c(N)ncnc21` (stereo not shown) [compound 291], the EC50 at ΔF508 CFTR [1] and at ΔF508 CFTR [2] was over 15 µM in each case.
Take `CCn1nc([S+]([O-])c2ccc(F)cc2F)c2c(N)ncnc21` (stereo not shown) [compound 292]: the concentration giving a half-maximal response (EC50) at ΔF508 CFTR [1] and at ΔF508 CFTR [2] was over 15 µM in each case.
`O=[N+]([O-])c1ccc(Nc2ncnc3[nH]nc(-c4ccc(Cl)cc4)c23)nc1` [compound 293]: the 50% effective concentration (EC50) on ΔF508 CFTR [1] and at ΔF508 CFTR [2] was over 15 µM throughout.
With `CCn1cc(-c2ccc(Cl)cc2)c2c(NC(=O)c3ccc(C)cc3)ncnc21` [compound 298], the EC50 is over 15 µM on ΔF508 CFTR [1] and under 2 µM on ΔF508 CFTR [2].
For the molecule `CCn1cc(-c2ccc(Cl)cc2)c2c(NC(=O)c3ccc(F)cc3)ncnc21` [compound 299], the results for the EC50 on ΔF508 CFTR [1] and on ΔF508 CFTR [2] were over 15 µM and under 2 µM, respectively.
As for `CC(C)OC(=O)Nc1ncnc2c1c(-c1ccc(Cl)cc1)nn2C(C)(C)C` [compound 300], the concentration for a half-maximal effect (EC50) at ΔF508 CFTR [1] was over 15 µM; on ΔF508 CFTR [2] it was 5 to 10 µM.
With `CC(=O)N1CCC(n2nc(-c3ccc(Cl)cc3)c3c(N)ncnc32)CC1` [compound 302], the EC50 at ΔF508 CFTR [1] is over 15 µM; at ΔF508 CFTR [2], under 2 µM.
For `CCOC(=O)N1CCC(n2nc(-c3ccc(Cl)cc3)c3c(N)ncnc32)CC1` [compound 303], the EC50 at ΔF508 CFTR [1] and at ΔF508 CFTR [2] was over 15 µM throughout.
Take `CC(=O)N1CC(n2cc(Cc3cccc4ccccc34)c3c(N)ncnc32)C1` [compound 306]: the EC50 on ΔF508 CFTR [1] and on ΔF508 CFTR [2] was over 15 µM in each case.
In the case of `Nc1ncnc2c1c(-c1ccc(Cl)cc1)nn2[C@@H]1CCOC1` [compound 307], the half-maximal effective concentration (EC50) on ΔF508 CFTR [1] and on ΔF508 CFTR [2] was over 15 µM throughout.
On to `CCn1nc(Nc2cccc3ccccc23)c2c(N)ncnc21` [compound 308], for which the EC50 at ΔF508 CFTR [1] is over 15 µM; on ΔF508 CFTR [2], 5 to 10 µM.
For the molecule `Nc1ncnc2c1c(-c1ccc(Cl)cc1)cn2CC(O)CF` (stereo not shown) [compound 309], the EC50 on ΔF508 CFTR [1] is over 15 µM; on ΔF508 CFTR [2] it was 2 to 5 µM.
Taken in the same sequence, the figures for `Cn1cc(-c2ccc(Cl)cc2)c2c(N)ncnc21` [compound 310] were over 15 µM and under 2 µM.
`C=CCn1cc(-c2ccc(Cl)cc2)c2c(N)ncnc21` [compound 311]: the values for the EC50 at ΔF508 CFTR [1] and on ΔF508 CFTR [2] were 5 to 10 µM and 2 to 5 µM, respectively.
On the same counts, the results for `COc1nn(C(C)(C)C)c2ncnc(N)c12` [compound 312, 1-tert-butyl-3-methoxy-1H-pyrazolo[3,4-d]pyrimidin-4-ylamine] are 5 to 10 µM and over 15 µM.
With `CCn1nc(Nc2ccc3c(c2)OC(F)(F)O3)c2c(N)ncnc21` [compound 313], the EC50 is 2 to 5 µM on ΔF508 CFTR [1] and over 15 µM at ΔF508 CFTR [2].
Turning to `CN(c1ccccc1)c1nn(C2CCC2)c2ncnc(N)c12` [compound 314], the half-maximal effective concentration (EC50) at ΔF508 CFTR [1] and at ΔF508 CFTR [2] was over 15 µM throughout.
Turning to `CC(C)n1cc(-c2ccc(Cl)cc2)c2c(N)ncnc21` [compound 315], the half-maximal effective concentration (EC50) on ΔF508 CFTR [1] is 2 to 5 µM; at ΔF508 CFTR [2], under 2 µM.
For `CC(C)(C)Cn1cc(-c2ccc(Cl)cc2)c2c(N)ncnc21` [compound 316], the 50% effective concentration (EC50) at ΔF508 CFTR [1] was 2 to 5 µM; at ΔF508 CFTR [2], 5 to 10 µM.
Turning to `CCn1nc(N(C)c2cccc(Cl)c2)c2c(N)ncnc21` [compound 317], the concentration for a half-maximal effect (EC50) on ΔF508 CFTR [1] and on ΔF508 CFTR [2] was over 15 µM in each case.
For the molecule `Nc1ncnc2c1c(-c1ccc(Cl)cc1)nn2[C@H]1CCOC1` [compound 318], the EC50 at ΔF508 CFTR [1] and at ΔF508 CFTR [2] was over 15 µM in each case.
Consider `CCNC(=O)N1CCC(n2nc(-c3ccc(Cl)cc3)c3c(N)ncnc32)CC1` [compound 319], for which the 50% effective concentration (EC50) at ΔF508 CFTR [1] and on ΔF508 CFTR [2] was over 15 µM in each case.
Turning to `CC(C)(C)n1cc(-c2ccc(Cl)cc2)c2c(NC(=O)C3CCCC3)ncnc21` [compound 321], the EC50 at ΔF508 CFTR [1] and at ΔF508 CFTR [2] was under 2 µM each time.
`CCn1cc(-c2ccc(Cl)cc2)c2c(NC(=O)C(C)(C)C)ncnc21` [compound 322]: the EC50 on ΔF508 CFTR [1] and at ΔF508 CFTR [2] was 2 to 5 µM each time.
Take `CCn1nc(Sc2cccc(C(F)(F)F)c2)c2c(N)ncnc21` [compound 323]: the values for the EC50 on ΔF508 CFTR [1] and on ΔF508 CFTR [2] were under 2 µM and over 15 µM, respectively.
In the case of `CCn1nc(Sc2ccccn2)c2c(N)ncnc21` [compound 324], the EC50 at ΔF508 CFTR [1] and at ΔF508 CFTR [2] was over 15 µM throughout.
As for `CC(C)(C)n1nc(O)c2c(N)ncnc21` [compound 325, 4-amino-1-tert-butyl-1H-pyrazolo[3,4-d]pyrimidin-3-ol], the EC50 at ΔF508 CFTR [1] and on ΔF508 CFTR [2] was over 15 µM throughout.
Regarding `CC(C)(C)n1nc(Oc2ncccn2)c2c(N)ncnc21` [compound 326], the EC50 at ΔF508 CFTR [1] and at ΔF508 CFTR [2] was over 15 µM throughout.
Take `Nc1ncnc2c1c(-c1ccc(Cl)cc1)cn2Cc1ccccc1` [compound 327]: the EC50 at ΔF508 CFTR [1] is under 2 µM; at ΔF508 CFTR [2], over 15 µM.
As to `CCn1cc(-c2ccc(Cl)cc2)c2c(NC(=O)NC(C)C)ncnc21` [compound 328], the EC50 on ΔF508 CFTR [1] and at ΔF508 CFTR [2] was over 15 µM throughout.
Consider `CC(C)(C)n1nc([S+]([O-])c2ccccn2)c2c(N)ncnc21` (stereo not shown) [compound 329], for which the half-maximal effective concentration (EC50) at ΔF508 CFTR [1] and on ΔF508 CFTR [2] was over 15 µM in each case.
Regarding `CC(C)(C)n1nc(Oc2ccccn2)c2c(N)ncnc21` [compound 330], the EC50 at ΔF508 CFTR [1] and on ΔF508 CFTR [2] was over 15 µM throughout.
As to `CC(C)(C)n1nc(Oc2ccccc2[N+](=O)[O-])c2c(N)ncnc21` [compound 331], the concentration for a half-maximal effect (EC50) is 2 to 5 µM at ΔF508 CFTR [1] and over 15 µM at ΔF508 CFTR [2].
For the molecule `CC(=O)C1CC(n2nc(Sc3ccccc3)c3c(N)ncnc32)C1` (stereo not shown) [compound 334], the EC50 on ΔF508 CFTR [1] and on ΔF508 CFTR [2] was over 15 µM in each case.
As to `CC(C)(C)n1nc(-c2ccc(Cl)cc2)c2c(NC(=O)O[C@@H]3CCOC3)ncnc21` [compound 335], the values for the EC50 on ΔF508 CFTR [1] and on ΔF508 CFTR [2] were over 15 µM and 5 to 10 µM, respectively.
On the same counts, the results for `CCn1cc(-c2ccc(Cl)cc2)c2c(NC(=O)C(C)C)ncnc21` [compound 336] are 5 to 10 µM and under 2 µM.
As for `CC(C)N1CCC(n2nc(-c3ccc(Cl)cc3)c3c(N)ncnc32)CC1` [compound 342], the half-maximal effective concentration (EC50) at ΔF508 CFTR [1] and at ΔF508 CFTR [2] was over 15 µM in each case.
On to `CC(C)(C)OC(=O)n1nc(Sc2cccc(Cl)c2)c2c(N)ncnc21` [compound 343], for which the EC50 on ΔF508 CFTR [1] was under 2 µM; at ΔF508 CFTR [2], over 15 µM.
With `CC(=O)N1CC(n2nc(Sc3cccc(Cl)c3)c3c(N)ncnc32)C1` [compound 344], the concentration for a half-maximal effect (EC50) on ΔF508 CFTR [1] and at ΔF508 CFTR [2] was over 15 µM each time.
Consider `CCOC(=O)N1CC(n2nc(Sc3ccccc3)c3c(N)ncnc32)C1` [compound 347], for which the EC50 on ΔF508 CFTR [1] and at ΔF508 CFTR [2] was over 15 µM in each case.
In the case of `CC(C)(C)C(=O)Nc1ncnc2c1c(-c1ccc(Cl)cc1)cn2C(C)(C)C` [compound 349], the EC50 on ΔF508 CFTR [1] and on ΔF508 CFTR [2] was 2 to 5 µM each time.
Turning to `CCn1cc(-c2ccc(Cl)cc2)c2c(NC(=O)C3CCCC3)ncnc21` [compound 350], the concentration for a half-maximal effect (EC50) at ΔF508 CFTR [1] was over 15 µM; at ΔF508 CFTR [2], under 2 µM.

These data come from patent US20100331297A1, “MODULATION OF PROTEIN TRAFFICKING” (FOLDRX PHARMACEUTICALS, INC., priority 2007, published 2010).
